Assay results reported in article PMC10005547, “Development of Highly Efficient Estrogen Receptor β-Targeted Near-Infrared Fluorescence Probes Triggered by Endogenous Hydrogen Peroxide for Diagnostic Imaging of Prostate Cancer” (Molecules, 2023).

Assays:
ERα = target: T1, ERα (Homo sapiens, UniProt P03372); assay: fluorescence polarization competition against a fluorescent ligand; assay type: binding
T1 construct: gene ESR1
T1 sequence (P03372 1-595): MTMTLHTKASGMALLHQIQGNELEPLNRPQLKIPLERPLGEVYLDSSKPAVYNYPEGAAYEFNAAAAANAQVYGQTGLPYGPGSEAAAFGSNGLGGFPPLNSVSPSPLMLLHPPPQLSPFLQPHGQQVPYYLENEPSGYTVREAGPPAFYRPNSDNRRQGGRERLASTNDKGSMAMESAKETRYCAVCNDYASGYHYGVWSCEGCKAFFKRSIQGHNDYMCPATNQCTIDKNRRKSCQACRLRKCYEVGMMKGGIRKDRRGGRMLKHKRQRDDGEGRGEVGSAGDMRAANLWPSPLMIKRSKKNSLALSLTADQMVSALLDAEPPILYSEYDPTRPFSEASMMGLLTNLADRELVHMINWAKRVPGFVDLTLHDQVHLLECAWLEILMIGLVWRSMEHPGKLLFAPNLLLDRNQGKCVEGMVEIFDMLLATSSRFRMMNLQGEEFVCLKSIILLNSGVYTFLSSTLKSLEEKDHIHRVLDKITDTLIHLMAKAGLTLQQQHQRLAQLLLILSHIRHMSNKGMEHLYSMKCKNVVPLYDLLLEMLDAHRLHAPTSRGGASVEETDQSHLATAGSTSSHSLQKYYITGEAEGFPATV

ERβ = target: T2, ERβ (Homo sapiens, UniProt Q92731); assay: as above; assay type: binding
T2 construct: gene ESR2

in vitro = assay: in vitro; set-up: CCK-8 cell viability assay, absorbance at 450 nm; details: human, mcf-10a cells; read-out: MCF-10A (IC50)
Method: Normal breast cells MCF-10A and prostate cancer cells DU-145 (purchased from ATCC, Rockville, MD, USA), breast cancer cells MCF-7 (purchased from the Type Culture Collection of the Chinese Academy of Sciences, Shanghai, China) were cultured in a phenol red DMEM [compound left out] medium supplemented with 10% fetal bovine serum. When the cell density reached 80% to 90%, the cells were digested, and the cell suspension was spread into 96-well cell culture plates with a phenol red-free DMEM medium containing 10% CS. After the cells were completely adherent, the original culture medium was discarded, and 100 μL of fresh compound solution prepared with the DMEM medium containing 10% CS were added to each well. The concentration gradient of the compound is: 1 × 10^−7.5 M, 1 × 10^−7 M, 1 × 10^−6.5 M, 1 × 10^−6 M, 1 × 10^−5.5 M, 1 × 10^−5 M, 1 × 10^−4.5 M, 1 × 10^−4 M. After 4 days of drug-treated culture, the culture plate was removed, the culture medium was aspirated, 100 μL CCK-8 working solution was added to each well and incubated for 1.5–2 h at 37 °C in a 5% CO2 incubator. The plate was read on the microplate reader, the wavelength at 450 nm was selected as the reference wavelength, the experimental results were analyzed, and the IC50 was calculated. […]

DU-145 = assay: cells; set-up: CCK-8 cell viability assay, absorbance at 450 nm; details: Homo sapiens, DU-145, 96 h
Method: (§1) Normal breast cells MCF-10A and prostate cancer cells DU-145 (purchased from ATCC, Rockville, MD, USA), breast cancer cells MCF-7 (purchased from the Type Culture Collection of the Chinese Academy of Sciences, Shanghai, China) were cultured in a phenol red DMEM [compound left out] medium supplemented with 10% fetal bovine serum. When the cell density reached 80% to 90%, the cells were digested, and the cell suspension was spread into 96-well cell culture plates with a phenol red-free DMEM medium containing 10% CS. After the cells were completely adherent, the original culture medium was discarded, and 100 μL of fresh compound solution prepared with the DMEM medium containing 10% CS were added to each well. The concentration gradient of the compound is: 1 × 10^−7.5 M, 1 × 10^−7 M, 1 × 10^−6.5 M, 1 × 10^−6 M, 1 × 10^−5.5 M, 1 × 10^−5 M, 1 × 10^−4.5 M, 1 × 10^−4 M. After 4 days of drug-treated culture, the culture plate was removed, the culture medium was aspirated, 100 μL CCK-8 working solution was added to each well and incubated for 1.5–2 h at 37 °C in a 5% CO2 incubator. The plate was read on the microplate reader, the wavelength at 450 nm was selected as the reference wavelength, the experimental results were analyzed, and the IC50 was calculated. To investigate the toxicity of P1 and P2 on normal cells and their inhibitory activity on cancer cells before performing cellular imaging, we tested the effects of P1 and P2 on MCF-10A normal breast cells, MCF-7 breast cancer cells with high ERα expression, and DU-145 prostate cancer cells with high ERβ expression by using CCK-8 assays (Table S1). […] However, P1 was not toxic to any of these three cell lines.

MCF-7 = assay: cells; set-up: CCK-8 cell viability assay, absorbance at 450 nm; details: Homo sapiens, MCF7, 96 h
Method: as §1

T2 sequence (Q92731 whole entry): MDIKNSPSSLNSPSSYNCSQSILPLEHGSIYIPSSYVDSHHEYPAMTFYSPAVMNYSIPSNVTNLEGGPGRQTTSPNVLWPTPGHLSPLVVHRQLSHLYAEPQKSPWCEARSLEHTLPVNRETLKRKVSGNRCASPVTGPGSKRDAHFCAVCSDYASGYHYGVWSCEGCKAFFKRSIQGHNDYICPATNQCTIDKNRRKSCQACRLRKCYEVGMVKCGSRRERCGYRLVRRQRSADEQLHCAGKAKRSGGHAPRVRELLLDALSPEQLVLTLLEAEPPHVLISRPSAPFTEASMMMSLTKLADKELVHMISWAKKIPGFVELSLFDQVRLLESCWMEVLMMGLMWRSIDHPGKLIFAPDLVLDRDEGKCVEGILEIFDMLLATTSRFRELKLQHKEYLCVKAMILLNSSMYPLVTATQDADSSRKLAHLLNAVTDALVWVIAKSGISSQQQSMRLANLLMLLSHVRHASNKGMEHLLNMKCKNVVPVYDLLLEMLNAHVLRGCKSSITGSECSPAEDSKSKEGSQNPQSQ

| SMILES | Ki (ERα) [µM] | Ki (ERβ) [µM] | CC50 at 96 h (in vitro) [µM] | IC50 (DU-145) [µM] | IC50 (MCF-7) [µM] |
| --- | --- | --- | --- | --- | --- |
| CC1(C)OB(c2ccc(/C=C/C3=CC(=C(C#N)C#N)c4cc(O)ccc4O3)cc2)OC1(C)C [P1, (E)-2-(6-Hydroxy-2-(4-(4,4,5,5-tetramethyl-1,3,2-dioxaborolan-2-yl)styryl)-4H-chromen-4-ylidene)malononitrile] | 4.36 ± 0.01 | 1.42 ± 0.02 | > 100 | > 100 | > 100 |
| C=CS(=O)(=O)Oc1ccc2c(c1)C(=C(C#N)C#N)C=C(/C=C/c1ccc(B3OC(C)(C)C(C)(C)O3)cc1)O2 [P2, (E)-4-(Dicyanomethylene)-2-(4-(4,4,5,5-tetramethyl-1,3,2-dioxaborolan-2-yl)styryl)-4H-chromen-6-yl ethenesulfonate] | 8.73 ± 0.01 | 1.21 ± 0.03 | > 100 | > 100 | 16.3 ± 4.42 |
